Measurements taken from Sander's compilation of Henry's law constants (doi:10.1021/es00034a021).

Assay: Henry solubility constant Hcp at 298.15 K (mol/(m3 Pa))
Details: reference: Tse et al. (1992)

SMILES | Henry solubility constant Hcp
ClC(Br)Br [dibromochloromethane] | 0.0093
BrCBr [dibromomethane] | 0.011
ClC(Cl)(Cl)Cl [tetrachloromethane] | 0.00038
ClCC(Cl)(Cl)Cl [1,1,1,2-tetrachloroethane] | 0.0045
ClC(Cl)Br [bromodichloromethane] | 0.0048
CC(Cl)CCl (stereo not drawn) [1,2-dichloropropane] | 0.0038
ClCC(Cl)Cl [1,1,2-trichloroethane] | 0.011
C=C(Cl)Cl [1,1-dichloroethene] | 0.00035
ClCCl [dichloromethane] | 0.0039
CC(Cl)(Cl)Cl [1,1,1-trichloroethane] | 0.00063
ClC=C(Cl)Cl [trichloroethene] | 0.0011
BrC(Br)Br [tribromomethane] | 0.019
ClC(Cl)C(Cl)Cl [1,1,2,2-tetrachloroethane] | 0.026
